According to ChEMBL document CHEMBL3734705, “Synthesis and in vitro cytotoxicity of novel C-12 substituted-14-deoxy-andrographolide derivatives as potent anti-cancer agents” (2015):

How the values were obtained:
NCI-H522 = experiment: Cytotoxicity against human NCI-H522 cells assessed as growth inhibition at 10 uM after 48 hrs by SRB assay; assay type: functional; settings: NCI-H522, 48 h, read-out: GI
[1] = Cytotoxicity against human SF268 cells assessed as growth inhibition at 10 uM after 48 hrs by SRB assay; assay type: functional; settings: SF-268, 48 h, read-out: GI
[2] = Cytotoxicity against human OVCAR8 cells assessed as growth level at 10 uM after 48 hrs by SRB assay; assay type: functional, OVCAR-8
SK-MEL-5 = experiment: Cytotoxicity against human SK-MEL-5 cells assessed as growth level at 10 uM after 48 hrs by SRB assay; assay type: functional
[3] = Cytotoxicity against human BT549 cells assessed as growth inhibition at 10 uM after 48 hrs by SRB assay; assay type: functional; settings: BT-549, 48 h, read-out: GI
[4] = Cytotoxicity against human RXF393 cells assessed as growth level at 10 uM after 48 hrs by SRB assay; assay type: functional, RXF 393
HT-29 = experiment: Cytotoxicity against human HT-29 cells assessed as growth inhibition at 10 uM after 48 hrs by SRB assay; assay type: functional; settings: HT-29, 48 h, read-out: GI
SR = experiment: Cytotoxicity against human SR cells assessed as growth level at 10 uM after 48 hrs by SRB assay; assay type: functional
[5] = Cytotoxicity against human Caki1 cells assessed as growth level at 10 uM after 48 hrs by SRB assay; assay type: functional, CAKI-1
[6] = Cytotoxicity against human OVCAR5 cells assessed as growth level at 10 uM after 48 hrs by SRB assay; assay type: functional, OVCAR-5
SN12C = experiment: Cytotoxicity against human SN12C cells assessed as growth level at 10 uM after 48 hrs by SRB assay; assay type: functional
[7] = Cytotoxicity against human SNB75 cells assessed as growth level at 10 uM after 48 hrs by SRB assay; assay type: functional, SNB-75
KM12 = experiment: Cytotoxicity against human KM12 cells assessed as growth level at 10 uM after 48 hrs by SRB assay; assay type: functional
NCI-H322M = experiment: Cytotoxicity against human NCI-H322M cells assessed as growth level at 10 uM after 48 hrs by SRB assay; assay type: functional
[8] = Cytotoxicity against human UACC257 cells assessed as growth level at 10 uM after 48 hrs by SRB assay; assay type: functional, UACC-257
[9] = Cytotoxicity against human UO31 cells assessed as growth level at 10 uM after 48 hrs by SRB assay; assay type: functional, UO-31
[10] = Cytotoxicity against human SF539 cells assessed as growth inhibition at 10 uM after 48 hrs by SRB assay; assay type: functional; settings: SF-539, 48 h, read-out: GI
[11] = Cytotoxicity against human HCT15 cells assessed as growth inhibition at 10 uM after 48 hrs by SRB assay; assay type: functional; settings: HCT-15, 48 h, read-out: GI
[12] = Cytotoxicity against human LOXIMVI cells assessed as growth inhibition at 10 uM after 48 hrs by SRB assay; assay type: functional; settings: LOX IMVI, read-out: GI
[13] = Cytotoxicity against human COLO205 cells assessed as growth level at 10 uM after 48 hrs by SRB assay; assay type: functional, COLO 205
[14] = Cytotoxicity against human IGROV1 cells assessed as growth level at 10 uM after 48 hrs by SRB assay; assay type: functional, IGROV-1
[15] = Cytotoxicity against human SF295 cells assessed as growth inhibition at 10 uM after 48 hrs by SRB assay; assay type: functional; settings: SF-295, 48 h, read-out: GI
[16] = Cytotoxicity against human HCC2998 cells assessed as growth level at 10 uM after 48 hrs by SRB assay; assay type: functional, HCC 2998
T47D = experiment: Cytotoxicity against human T47D cells assessed as growth level at 10 uM after 48 hrs by SRB assay; assay type: functional
U-251 = experiment: Cytotoxicity against human U251 cells assessed as growth level at 10 uM after 48 hrs by SRB assay; assay type: functional
[17] = Cytotoxicity against human MOLT4 cells assessed as growth inhibition at 10 uM after 48 hrs by SRB assay; assay type: functional; settings: MOLT-4, 48 h, read-out: GI
NCI-H23 = experiment: Cytotoxicity against human NCI-H23 cells assessed as growth level at 10 uM after 48 hrs by SRB assay; assay type: functional
Malme-3M = experiment: Cytotoxicity against human MALME-3M cells assessed as growth inhibition at 10 uM after 48 hrs by SRB assay; assay type: functional; settings: read-out: GI
786-0 = experiment: Cytotoxicity against human 786-0 cells assessed as growth level at 10 uM after 48 hrs by SRB assay; assay type: functional
[18] = Cytotoxicity against human SNB19 cells assessed as growth level at 10 uM after 48 hrs by SRB assay; assay type: functional, SNB-19

Row | SMILES | inhibition of growth at 10 µM (NCI-H522) | inhibition of growth at 10 µM [1] | Activity [2] | Activity (SK-MEL-5) | inhibition of growth at 10 µM [3] | Activity [4] | inhibition of growth at 10 µM (HT-29) | Activity (SR) | Activity [5] | Activity [6] | Activity (SN12C) | Activity [7] | Activity (KM12) | Activity (NCI-H322M) | Activity [8] | Activity [9] | inhibition of growth at 10 µM [10] | inhibition of growth at 10 µM [11] | inhibition of growth at 10 µM [12] | Activity [13] | also measured
1 | C=C1CC[C@@H]2[C@](C)(COC(C)=O)[C@H](OC(C)=O)CC[C@@]2(C)[C@@H]1CC(NCc1ccc(F)cc1)C1=CCOC1=O (mixture of isomers) | 79.1% | 37.4% | 18.62% | 11.81% | 71.3% | 80.59% | 78.7% | 7.69% | 45.98% | 99% | 46.23% | 58.06% | 46.48% | 72.54% | 45.84% | 31.26% | 35.5% | 63% | 90.7% | 42.15% | Activity [14]: 48.35%; inhibition of growth at 10 µM [15]: 3.87%; Activity [16]: 89.3%; Activity (T47D): 26.6%; Activity (U-251): 48.01%; inhibition of growth at 10 µM [17]: 0.37%; Activity (NCI-H23): 57.85%; inhibition of growth at 10 µM (Malme-3M): 34.9%; Activity (786-0): 86.82%
2 | C=C1CC[C@@H]2[C@](C)(COC(C)=O)[C@H](OC(C)=O)CC[C@@]2(C)[C@@H]1CC(NCCCC)C1=CCOC1=O (mixture of isomers) | 20.9% | 23% | 89.63% | 76.02% | 10.8% | 104.19% | 17.4% | 48.54% | 90.95% | 95.04% | 89.83% | 77.87% | 92.79% | 96.22% | 85.16% | 84% | 9.46% | 3.11% | 9.61% | 82.08% | Activity [14]: 80.01%; inhibition of growth at 10 µM [15]: 5.72%; Activity [16]: 92.1%; Activity (T47D): 71.96%; Activity (U-251): 86.76%; inhibition of growth at 10 µM [17]: 44.5%; Activity (NCI-H23): 89.71%; inhibition of growth at 10 µM (Malme-3M): 2.43%; Activity (786-0): 96.07%; Activity [18]: 87.32%
3 | C=C1CC[C@@H]2[C@](C)(COC(C)=O)[C@H](OC(C)=O)CC[C@@]2(C)[C@@H]1CC(NC1CCCC1)C1=CCOC1=O (stereo partly drawn) | 54.4% | 23.3% | 53.68% | 34.29% | 44.4% | 78.03% | 24.5% | 19.62% | 60.7% | 105.62% | 78.46% | 68.03% | 74.46% | 101.16% | 38.37% | 56.08% | 10.6% | 33% | 31.5% | 75.23% | Activity [14]: 88.25%; inhibition of growth at 10 µM [15]: 9.61%; Activity [16]: 90.35%; Activity (T47D): 50.85%; Activity (U-251): 75.39%; inhibition of growth at 10 µM [17]: 57.6%; Activity (NCI-H23): 62.53%; inhibition of growth at 10 µM (Malme-3M): 15.4%; Activity (786-0): 92.51%
